Source: patent US20020092037A1, “Use of membrane supports in plant tissue culture processes” (priority 2000, published 2002)

How the values were obtained:
[1] = test system: P. taeda embryogenic cell lines; assay: Embryo development and germination with abscisic acid applied in a liquid phase under polyester membranes; type: cell-based, Pinus taeda
[2] = test system: P. taeda embryogenic cell lines; assay: as above; type: cell-based, Pinus taeda; remark: listed apart in the source
Method: Loblolly pine embryogenic cell cultures were initiated, proliferated, cryopreserved, retrieved, further proliferated on gelled maintenance medium, and placed into liquid suspension for plating on embryo development medium MSG1 as described in Examples 3-4 above. Three replicate plates of each line were prepared for each of the following treatments:
Treatment B: the cells were plated onto polyester support membranes laid onto 1 ml liquid embryo development medium MSG1 containing PEG but lacking gelling agent and activated charcoal, pipetted over gelled embryo development medium MSG1
Treatment C: the cells were plated onto polyester support membranes laid onto 1 ml liquid embryo development medium MSG1 containing PEG but lacking gelling agent and activated charcoal, pipetted over gelled embryo development medium MSG1 lacking abscisic acid.
Embryos were developed, harvested and germinated as described in Example 4 above. The results of the counts of high quality cotyledonary stage embryos, and the germination tests with these embryos, are shown in Table 20 below.
In another experiment, an attempt had been made to decrease the osmotic potential of the liquid phase in order to facilitate filter sterilization.

[3] = test system: unknown fungus on Eucalyptus camaldulensis leaf explants; assay: Decontamination of Eucalyptus leaf explants of fungus; type: cell-based
Text: Eucalyptus camaldulensis leaves were explanted from seedlings for the production of callus, and then discovered to be contaminated with an unknown fungus. Contaminated explants were shaken together to obtain the same degree of contamination for all explants to be used in this decontamination example. Contamination of each explant with the fungus was verified by streaking the explant on a potato dextrose agar plate, and observing independent growth of the fungus on the potato dextrose agar.
Approximately half the Eucalyptus leaf explants were then treated to decontamination by washing and collection of the tissue using polyester support membranes after each wash, similar to the improved decontamination method described in Example 6, split among five treatments:
Following the washing of half the material according to the protocol described in […] in the treatments described in the paragraph above, using three washes of 30 minutes each, the washed and non-washed material was then divided over the same support membrane treatments A-F as described in Example 8, except that nested within each support membrane treatment was the prior washing or lack of washing treatment, and within each of these latter treatments, the five fungicidal treatments listed above were further nested, wherein the antifungal agents benomyl, miconazole, nystatin or thiophanate were added to the medium subtending the tissue and supports in place of cefotaxime. Finally, non-contaminated explants were submitted to all treatments to determine the effects of the treatments on plant regeneration in the absence of fungus. Five explants were plated for each treatment combination.
The explants were then cultured in a growth chamber set at 27±3° C. and under low light, and were transferred biweekly using the same support membranes but supplying fresh sterile liquid and solid medium.

[4] = test system: P. taeda embryogenic cell lines; assay: Embryo development over eradicants in liquid phase of biphasic development and maturation media, P. taeda; type: cell-based, Pinus taeda; conditions: eradicant in liquid phase of development/maturation media, cefotaxime 500 mg/L, TIMENTIN 400 mg/L
Text: Agrobacterium contamination has been reported as recurring sometimes after long periods of time. With many species, eradicants are incorporated in all culture media used after the initial infection, including selection media, proliferation media, media to induce the formation of organs or the development of somatic embryos, media to elongate or mature organs or embryos that are formed, and regeneration media. For pine embryogenic cells, incorporation of eradicants into the embryo development and maturation media has been difficult due to the high temperature of polymerization of the media resulting from the incorporation of a high level of polyethylene glycol. Therefore, loblolly and hybrid pine cell lines grown and maintained as described in Examples 3-4 above were placed on polyester support membranes over gelled MSG1 embryo development and maturation media as described in Example 4 above, except that some of the development and maturation media were overlaid with various eradication treatments under the polyester support membranes. The treatments consisted of either no liquid phase, or a liquid phase identical to the gelled phase (except that gelling agent and activated charcoal were omitted) and incorporating either cefotaxime or TIMENTIN® as an eradicant. Three replicate plates were generated from each of […] (two from each of two P. taeda families and one hybrid pine family) for each of the treatments, and assessed for the ability of the cultures to develop high quality harvestable stage 3 embryos. Dishes were incubated in a dark growth chamber at 23±2° C. The membrane supports were transferred to new petri dishes containing fresh medium every 3 weeks. At week 9, stage 3 embryos were counted and those deemed suitable for germination were harvested.

[5] = test system: Hybrid pine embryogenic cell lines; assay: Embryogenicity after biphasic maintenance treatments, hybrid pine; type: cell-based; conditions: for % germination: embryos from cultures maintained over eradicant liquid phase; for Average Number Of Embryos Harvested Per Plate: eradicant in liquid phase during maintenance, cefotaxime 500 mg/L, TIMENTIN 400 mg/L
[6] = test system: Hybrid pine embryogenic cell lines; assay: Growth of pine embryogenic cells on polyester supports over biphasic media with eradicants, hybrid pine; type: cell-based; conditions: liquid phase under polyester support, cefotaxime 500 mg/L, TIMENTIN 400 mg/L
[7] = test system: P. taeda embryogenic cell lines; assay: Growth of pine embryogenic cells on polyester supports over biphasic media with eradicants, P. taeda; type: cell-based, Pinus taeda; conditions: liquid phase under polyester support, cefotaxime 500 mg/L, TIMENTIN 400 mg/L
Text: (§1) Loblolly pine cell lines were used which had been grown and maintained as described in Examples 3-4 above, and purposely infected with bacteria as described in Example 6 above. Support membranes bearing plant tissue were then placed on gelled DCR2 maintenance media with various decontamination treatments. These treatments consisted of antibiotics (cefotaxime, carbenicillin, AUGMENTIN® or TIMENTIN®) as eradicants incorporated into the gelled DCR2 maintenance or selection media, the antibiotics incorporated into liquid DCR3 pipetted in a thin film over gelled DCR2 maintenance media lacking antibiotics, or the antibiotics incorporated into liquid DCR3 which was saturated into a filter paper laid on gelled DCR2 maintenance media lacking antibiotics. Support membranes bearing control cells were placed either on gelled DCR2 maintenance media, over liquid DCR3 pipetted in a thin film over gelled DCR2 maintenance media lacking antibiotics, or over a filter paper saturated with liquid DCR3 and laid on gelled DCR2 maintenance media lacking antibiotics. Decontamination and maintenance were continued for a period of approximately 12 weeks with transfer of the polyester support membranes, bearing the cells, every 14-21 days.

[8] = test system: Hybrid pine embryogenic cell lines; assay: Embryo development over eradicants in liquid phase of biphasic development and maturation media, hybrid pine; type: cell-based; conditions: eradicant in liquid phase of development/maturation media, cefotaxime 500 mg/L, TIMENTIN 400 mg/L
Text: Agrobacterium contamination has been reported as recurring sometimes after long periods of time. With many species, eradicants are incorporated in all culture media used after the initial infection, including selection media, proliferation media, media to induce the formation of organs or the development of somatic embryos, media to elongate or mature organs or embryos that are formed, and regeneration media. For pine embryogenic cells, incorporation of eradicants into the embryo development and maturation media has been difficult due to the high temperature of polymerization of the media resulting from the incorporation of a high level of polyethylene glycol. […] Three replicate plates were generated from each of six embryogenic cell lines (two from each of two P. taeda families and one hybrid pine family) for each of the treatments, and assessed for the ability of the cultures to develop high quality harvestable stage 3 embryos. […] At week 9, stage 3 embryos were counted and those deemed suitable for germination were harvested.

[9] = test system: P. taeda embryogenic cell lines; assay: Embryogenicity after biphasic maintenance treatments, P. taeda; type: cell-based, Pinus taeda; conditions: for % germination: embryos from cultures maintained over eradicant liquid phase; for Average Number Of Embryos Harvested Per Plate: eradicant in liquid phase during maintenance, cefotaxime 500 mg/L, TIMENTIN 400 mg/L
Text: as §1

[10] = P1, liquid phase with same abscisic acid content as gelled phase
[11] = P1, gelled phase lacking abscisic acid and liquid phase containing abscisic acid
[12] = P2, gelled phase lacking abscisic acid and liquid phase containing abscisic acid
[13] = P2, liquid phase with same abscisic acid content as gelled phase

CC1=CC(=O)CC(C)(C)[C@@]1(O)/C=C/C(C)=C\C(=O)O [Abscisic Acid, Abscisic acid]
Average Number Of High Quality Cotyledonary Embryos Per Plate ([1]; L5, Liquid Phase containing ABA and PEG): 26.3 ± 45.6
Average Number Of High Quality Cotyledonary Embryos Per Plate ([1]; L5, Liquid Phase containing ABA but no PEG): 201.0 ± 44.5
Average Number Of High Quality Cotyledonary Embryos Per Plate ([1]; L9, Liquid Phase containing ABA and PEG): 64.0 ± 23.6
Average Number Of High Quality Cotyledonary Embryos Per Plate ([1]; L9, Liquid Phase containing ABA but no PEG): 97.0 ± 20.7
Average Number Of High Quality Cotyledonary Embryos Per Plate ([1]; L42, Liquid Phase containing ABA and PEG): 0
Average Number Of High Quality Cotyledonary Embryos Per Plate ([1]; L42, Liquid Phase containing ABA but no PEG): 0
Percentage Of Resulting Embryos That Germinated [1, 10]: 55.0%
Average Number Of High Quality Cotyledonary Embryos Per Plate [2, 11]: 30.3 ± 7.1
Percentage Of Resulting Embryos That Germinated [2, 11]: 52.5%
Average Number Of High Quality Cotyledonary Embryos Per Plate [2, 10]: 44.3 ± 21.1
Average Number Of High Quality Cotyledonary Embryos Per Plate [2, 12]: 48.7 ± 5.0
Percentage Of Resulting Embryos That Germinated [2, 12]: 57.5%
Average Number Of High Quality Cotyledonary Embryos Per Plate [2, 13]: 44.3 ± 4.9
Percentage Of Resulting Embryos That Germinated [2, 13]: 67.5%
decrease in embryos per plate ([2]; abscisic acid in liquid phase only, overall use of 5% of the amount): 30-60%

CCCCNC(=O)n1c(NC(=O)OC)nc2ccccc21 [benomyl, Benomyl]
phenolic release into the medium from plant tissue ([3]; also from successfully decontaminated plant tissue): elicited considerable phenolic release into the medium
decontamination ([3]; in the washing (100 mg/L) and incorporated into the medium below the polyester supports): largely ineffective in decontamination

CO/N=C(\C(=O)N[C@@H]1C(=O)N2C(C(=O)O)=C(COC(C)=O)CS[C@H]12)c1csc(N)n1 [cefotaxime]
Number of Harvestable Cotyledonary Stage Embryos Developed ([4]; P1): 208.0 ± 94.8
Number of Harvestable Cotyledonary Stage Embryos Developed ([4]; P2): 269.0 ± 23.3
Number of Harvestable Cotyledonary Stage Embryos Developed ([4]; P3): 25.0 ± 17.7
Number of Harvestable Cotyledonary Stage Embryos Developed ([4]; P4): 18.0 ± 1.0
% germination ([5]; H1): (96%)
Average Number Of Embryos Harvested Per Plate ([5]; H1): 152.0 ± 40.8
% germination ([5]; H2): (88%)
Average Number Of Embryos Harvested Per Plate ([5]; H2): 77.0 ± 10.4
Average growth over a one-month period (two transfers) ([6]; H1): 4.53 + 0.28
Average growth over a one-month period (two transfers) ([6]; H2): 8.76 + 0.63
Average growth over a one-month period (two transfers) ([7]; P1): 7.20 + 0.28
Average growth over a one-month period (two transfers) ([7]; P2): 1.93 + 0.24
Average growth over a one-month period (two transfers) ([7]; P3): 6.75 + 0.25
Average growth over a one-month period (two transfers) ([7]; P4): 8.97 + 0.19
Number of Harvestable Cotyledonary Stage Embryos Developed ([8]; H1): 200.0 ± 51.2
Number of Harvestable Cotyledonary Stage Embryos Developed ([8]; H2): 210.0 ± 67.1
% germination ([9]; P1): (10%)
Average Number Of Embryos Harvested Per Plate ([9]; P1): 87.0 ± 37.5
% germination ([9]; P2): (66%)
Average Number Of Embryos Harvested Per Plate ([9]; P2): 81.7 ± 44.5
% germination ([9]; P3): (21%)
Average Number Of Embryos Harvested Per Plate ([9]; P3): 14.3 ± 4.2
% germination ([9]; P4): (36%)
Average Number Of Embryos Harvested Per Plate ([9]; P4): 34.0 ± 16.1

Clc1ccc(COC(Cn2ccnc2)c2ccc(Cl)cc2Cl)c(Cl)c1 (stereo not shown) [miconazole, Miconazole]
contaminated explants in which decontamination did not succeed ([3]; contaminated Eucalyptus explants): 7.5%
decontamination rate ([3]; contaminated Eucalyptus explants, 50 mg/L in wash medium): 92.5%
